Experimental data as given in patent US12378235B2, “HCK inhibitors for the treatment of fibrosis and cancer” (Icahn School of Medicine At Mount Sinai, priority 2019, dated 2025).
“And” between values parts separate entries of the source, which are not always exact repeats. Equal entries are not always repeated. Where two headings read alike, the source gives them in different places.

Columns and labels:
HCK = biological target: T1, HCK (Homo sapiens, UniProt P08631); assay: P32 radioactive kinase assay (Reaction Biology Corp), HCK activity inhibition; format: biochemical; settings: for remaining activity at 1 µM: 1 μM compound, read-out: % Enzyme Activity (relative to DMSO controls) HCK (1 μM); for remaining activity at 50 µM: 50 μM compound, read-out: % Enzyme Activity (relative to DMSO controls) HCK (50 μM)
T1 construct: purchased Reaction Biology Corp
Method: HCK activity inhibition efficiency for the inhibitors. Inhibiting efficiency was performed in Reaction Biology with Corp P32 radioactive kinase assay, comparing the compounds of the invention with dasatinib for HCK, Bcr-Abl and other binding kinases identified in reference. Most of the HCK inhibitors of the invention tested have IC50 of HCK activity at about 50 uM concentrations.
HCK inhibiting efficiency was performed in Reaction Biology with Corp P32 radioactive kinase assay. Briefly, HCK kinase was delivered into the substrate solution and gently mixed, then compounds in DMSO were added into the kinase reaction mixture by Acoustic technology (Echo550; Nano liter range), and incubated for 20 minutes at room temperature. 33P-ATP was delivered into the reaction mixture to initiate the reaction. The kinase reaction was incubated for 2 hours at room temperature. Reactions were spotted onto P81 ion exchange paper, and detected kinase activity was measured by filter-binding method.

HK2 cells [1] = assay: CellTiter 96 AQueous One Solution Cell Proliferation Assay (MTS) in HK2 cells; format: cell-based; settings: Homo sapiens, HK-2, 24 hours treatment, MTS (FIG. 1), read-out: concentration that inhibits 50% of HK2 cell proliferation
Description: HCK inhibitors reduce cell proliferation. Excessive HCK activation is associated with several types of leukemia and enhances cell proliferation and survival by physical association with oncogenic fusion proteins, and with functional interactions with receptor tyrosine kinases. Elevated HCK activity is also observed in many solid malignancies, including breast and colon cancer, and correlates with decreased patient survival rates. HCK enhances the secretion of growth factors and pro-inflammatory cytokines from myeloid cells and promotes macrophage polarization towards a wound healing and tumor-promoting alternatively activated phenotype. Inhibition of HCK activity, therefore, should inhibit cancerous cell's proliferation. Compounds of the invention were measured for inhibition of cell proliferation with CellTiter 96® AQueous One Solution Cell Proliferation Assay (MTS) from Promega in HK2 cells. The compounds of the invention were diluted to serial concentrations. HK2 cells were cultured in 10% FBS and 1% P/S. The cells were treated with the compounds of the invention for 24 hours and then 20 μl/well of CellTiter 96® AQueous One Solution Reagent was added. Values were normalized to the percentages relative to DMSO controls. Values shown are mean±SEM.

SMAD = SMAD binding activity in HK2 cells; format: cell-based
Description: Inhibition of HCK affects SMAD binding activity. Transforming growth factor-β(TGF-β) is the primary factor that drives fibrosis in most, if not all, forms of chronic kidney disease (CKD). TGF-β1 can induce renal fibrosis via activation of both canonical (Smad-based) and non-canonical (non-Smad-based) signalling pathways, which result in activation of myofibroblasts, excessive production of extracellular matrix (ECM) and inhibition of ECM degradation. The role of Smad proteins in the regulation of fibrosis is complex, with competing profibrotic and antifibrotic actions (including in the regulation of mesenchymal transitioning), and with complex interplay between TGF-β/Smads and other signalling pathways.

HK2 cells [2] = assay: Anti-fibrosis effect: mRNA levels of fibrosis markers by RT-PCR in HK2 cells; format: cell-based; settings: for mRNA levels of fibrosis markers: FIG. 3A and FIG. 3B
Method: Anti-fibrosis effect was investigated by fibrosis markers in mRNA level. […] The mRNA levels of Veminten, FN1 and A-Sma were not affected. HK2 cells were treated with HCK inhibitor Examples 4, 7, and 8 at 10 uM and 20 uM overnight and then stimulated with TGF-beta for 8 hours. mRNA-levels of profibrotic markers by RT-PCR (normalized to GAPDH) from mRNA isolated in the cells. Values are mean±SEM; *P=0.05, […], ***P<0.001 between means; one-way ANOVA with Bonferroni multiple comparison test (FIG. 2B). Finally, it was shown that Examples 7, 8, and 13 reduced the mRNA levels of fibrosis markers (FIG. 3A and FIG. 3B).

LDH cytotoxicity assay = format: cell-based; settings: different dosages, up to very high dose of 50 uM
Method: LDH cytotoxicity assay for HCK inhibitors cytotoxicity. Toxicity refers to how poisonous or harmful a substance can be. In the context of pharmacology, drug toxicity occurs when a person has accumulated too much of a drug in his bloodstream, leading to adverse effects on the body. Drug toxicity may occur when the dose given is too high or the liver or kidneys are unable to remove the drug from the bloodstream, allowing it to accumulate in the body. Drug toxicity was measured with LDH cytotoxicity assay with different dosages of compounds of the invention.

[3] = second of two replicate columns
[4] = HK2 cells treated with 5, 10, 20 uM (FIG. 2A)

T1 sequence (P08631 whole entry): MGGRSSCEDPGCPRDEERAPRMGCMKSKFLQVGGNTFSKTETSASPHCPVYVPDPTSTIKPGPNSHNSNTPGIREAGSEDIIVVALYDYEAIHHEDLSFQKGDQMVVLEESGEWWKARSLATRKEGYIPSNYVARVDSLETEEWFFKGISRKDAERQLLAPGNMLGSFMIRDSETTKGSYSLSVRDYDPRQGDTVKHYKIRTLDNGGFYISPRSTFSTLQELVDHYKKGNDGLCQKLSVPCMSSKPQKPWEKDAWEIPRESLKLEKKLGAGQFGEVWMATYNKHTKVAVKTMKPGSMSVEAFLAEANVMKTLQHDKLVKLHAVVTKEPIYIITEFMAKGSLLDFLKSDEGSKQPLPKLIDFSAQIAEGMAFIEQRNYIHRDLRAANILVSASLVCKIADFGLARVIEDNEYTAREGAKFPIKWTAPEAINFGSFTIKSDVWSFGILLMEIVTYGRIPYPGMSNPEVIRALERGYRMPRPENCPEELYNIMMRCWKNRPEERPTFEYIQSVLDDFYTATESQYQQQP

| remaining activity at 1 µM (HCK; first of two replicate columns) [%] | remaining activity at 1 µM (HCK; [3]) [%] | remaining activity at 50 µM (HCK; first of two replicate columns) [%] | remaining activity at 50 µM (HCK; [3]) [%] | IC50 (HCK) | SMILES | IC50 (HK2 cells [1]) [µM] | SMAD activity in HK2 cells (SMAD) | mRNA levels of fibrosis markers (HK2 cells [2]) | cytotoxicity (LDH assay) (LDH cytotoxicity assay) | mRNA levels of Veminten, FN1 and A-Sma (HK2 cells [2]; [4]) | mRNA levels of fibrosis markers collagen1, Snail, Mmp2 and Slug(Snail2) (HK2 cells [2]; [4]) |
| --- | --- | --- | --- | --- | --- | --- | --- | --- | --- | --- | --- |
| 102 | 110 | 101 | 97.8 | – | CCOC(=O)c1cnc(NC(=O)c2cc(Cl)cc(Cl)c2)s1 [Example 20] | – | – | – | – | – | – |
| 114 | 116 | 112 | 117 | – | CCOC(=O)c1cnc(NC(=O)c2cc(-c3ccccc3)on2)s1 [Example 17] | – | – | – | – | – | – |
| 108 | 116 | 41.2 | 43.9 | < 50 µM | CCOC(=O)c1cnc(NC(=O)c2cc3cc(Cl)ccc3[nH]c2=O)s1 [Example 8] | 0.5 | reduce SMAD activity | reduced | – | – | – |
| 109 | 113 | 68.4 | 65.5 | < 50 µM | CCOC(=O)c1cnc(NC(C#N)c2cc(-c3ccccc3)on2)s1 (centres unmarked) [Example 13] | 10 | – | reduced | – | – | – |
| 104 | 114 | 42.8 | 45 | < 50 µM | CCOC(=O)c1cnc(NC(=O)c2cc3cc(Cl)ccc3oc2=O)s1 [Example 7] | 10 | – | reduced | – | – | – |
| 112 | 118 | 93.6 | 94.2 | – | CCOC(=O)c1cnc(NC(=O)/C=C/c2ccccc2)s1 [Example 14] | – | – | – | – | – | – |
| 86.6 | 83.4 | 6.63 | 5.97 | < 50 µM | CCOC(=O)c1cnc(NC(=O)C2=Cc3cc(Cl)cc(Cl)c3OC2c2ccccc2)s1 (centres unmarked) [Example 15] | 0.5 | reduce SMAD activity | – | – | – | – |

The next lines start with the compound.

| SMILES | remaining activity at 1 µM (HCK; first of two replicate columns) [%] | remaining activity at 1 µM (HCK; [3]) [%] | remaining activity at 50 µM (HCK; first of two replicate columns) [%] | remaining activity at 50 µM (HCK; [3]) [%] | IC50 (HCK) | IC50 (HK2 cells [1]) [µM] | SMAD activity in HK2 cells (SMAD) | mRNA levels of fibrosis markers (HK2 cells [2]) | cytotoxicity (LDH assay) (LDH cytotoxicity assay) | mRNA levels of Veminten, FN1 and A-Sma (HK2 cells [2]; [4]) | mRNA levels of fibrosis markers collagen1, Snail, Mmp2 and Slug(Snail2) (HK2 cells [2]; [4]) |
| --- | --- | --- | --- | --- | --- | --- | --- | --- | --- | --- | --- |
| CCOC(=O)c1cnc(NC(=O)c2cc(OC)c(OC)c(OC)c2)s1 [Example 16] | 97.5 | 94 | 89.8 | 85 | – | – | – | – | – | – | – |
| CCOC(=O)c1cnc(NC(C#N)C2=Cc3cc(Cl)cc(Cl)c3OC2c2ccccc2)s1 (centres unmarked) [Example 12] | 108 | 113 | 75.9 | 79.5 | < 50 µM | 10 | reduce SMAD activity | – | some cytotoxicity at very high dose of 50 uM | – | – |
| CCOC(=O)c1cnc(NC(C#N)c2ccc(B(O)O)cc2)s1 (centres unmarked) [Example 11] | 93.5 | 103 | 74.5 | 68.5 | – | – | – | – | – | – | – |
| COc1cc(C(=O)Nc2ncc(C(=O)O)s2)cc(OC)c1OC [Example 19] | 99.2 | 100 | 94.1 | 90.7 | – | – | – | – | – | – | – |
| O=C(Nc1ncc(C(=O)O)s1)c1cc(-c2ccccc2)on1 [Example 18] | 107 | 95 | 106 | 113 | – | – | – | – | – | – | – |
| COc1cc(-c2nnc3n2N=C(c2ccc(Br)cc2)CS3)cc(OC)c1OC [Example 4] | – | – | – | – | < 50 µM and 30 µM | – | – | – | – | not affected | affected |
| CCOC(=O)c1cnc(NC(=O)c2ccc(B3OC(C)(C)C(C)(C)O3)cc2)s1 [Example 9] | 110 | 115 | 95 | 86.3 | – | – | – | – | – | – | – |
| CCOC(=O)c1cnc(NC(C#N)c2ccc(B3OC(C)(C)C(C)(C)O3)cc2)s1 (centres unmarked) [Example 10] | 104 | 99.4 | 89.1 | 96.5 | – | – | – | – | – | – | – |
| O=C(Nc1ncc(C(=O)O)s1)c1cc(Cl)cc(Cl)c1 [Example 21] | 96.2 | 100 | 76.9 | 77.7 | – | – | – | – | – | – | – |
